# Test results as given in US9902709B2, “Polysubstituted pyridine compound, preparation method, use and pharmaceutical composition” (PEKING UNIVERSITY FOUNDER GROUP CO., LTD., priority 2014, dated 2018).
# What was measured:
# [1] = target: VEGFR2 (Homo sapiens (Human), UniProt P35968); experiment: Inhibitory activity of VEGFR2 kinase (HTRF KinEASE-TK kit); type: biochemical; conditions: for IC50: ATP 5 μM, 20 minutes, room temperature; for IC50 value as fold of that of Comparative compound 2 / IC50 value as fold of that of Sorafenib (free base): ratio of IC50
# Chain of VEGFR2 (P35968 20-1356): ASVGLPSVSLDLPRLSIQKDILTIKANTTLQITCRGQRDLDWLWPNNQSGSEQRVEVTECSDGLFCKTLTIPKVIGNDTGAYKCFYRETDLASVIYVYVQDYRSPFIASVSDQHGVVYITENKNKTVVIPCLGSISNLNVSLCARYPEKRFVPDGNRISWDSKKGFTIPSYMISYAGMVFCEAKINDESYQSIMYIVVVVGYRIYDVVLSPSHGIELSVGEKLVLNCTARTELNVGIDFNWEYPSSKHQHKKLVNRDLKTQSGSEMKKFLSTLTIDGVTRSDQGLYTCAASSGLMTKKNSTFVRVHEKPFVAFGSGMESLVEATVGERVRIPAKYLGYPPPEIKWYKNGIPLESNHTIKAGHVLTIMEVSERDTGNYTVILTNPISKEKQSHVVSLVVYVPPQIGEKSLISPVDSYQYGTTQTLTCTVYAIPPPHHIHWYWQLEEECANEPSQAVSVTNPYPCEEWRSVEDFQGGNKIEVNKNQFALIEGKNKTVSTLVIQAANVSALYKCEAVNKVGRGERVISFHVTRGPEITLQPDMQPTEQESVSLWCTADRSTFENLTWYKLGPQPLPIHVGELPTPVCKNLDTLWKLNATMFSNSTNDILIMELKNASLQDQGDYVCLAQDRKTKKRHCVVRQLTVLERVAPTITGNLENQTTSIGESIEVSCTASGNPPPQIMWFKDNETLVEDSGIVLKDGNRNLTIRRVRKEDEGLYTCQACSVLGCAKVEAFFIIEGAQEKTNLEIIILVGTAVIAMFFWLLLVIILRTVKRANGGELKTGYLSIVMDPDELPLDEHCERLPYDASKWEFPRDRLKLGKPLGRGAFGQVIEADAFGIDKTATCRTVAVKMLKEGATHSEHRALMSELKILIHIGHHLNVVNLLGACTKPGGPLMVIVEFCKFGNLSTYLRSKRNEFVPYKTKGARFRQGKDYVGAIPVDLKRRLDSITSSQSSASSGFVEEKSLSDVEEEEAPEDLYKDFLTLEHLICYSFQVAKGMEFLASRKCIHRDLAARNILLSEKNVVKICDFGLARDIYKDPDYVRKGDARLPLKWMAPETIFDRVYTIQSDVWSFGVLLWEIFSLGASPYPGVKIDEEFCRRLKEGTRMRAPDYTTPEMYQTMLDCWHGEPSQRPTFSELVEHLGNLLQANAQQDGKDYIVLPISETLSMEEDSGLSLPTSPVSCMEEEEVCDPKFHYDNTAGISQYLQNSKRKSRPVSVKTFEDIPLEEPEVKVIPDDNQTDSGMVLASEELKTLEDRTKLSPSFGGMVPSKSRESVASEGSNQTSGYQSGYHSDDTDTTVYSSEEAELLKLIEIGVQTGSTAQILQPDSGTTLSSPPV
# Protocol: HTRF®KinEASE™-TK kit (Cat.62TKOPEC, Cisbio);
# VEGFR2 (Cat: k2643, Sigma);
# 2.1 Preparation of VEGFR2 Kinase Reagent
# 1× kinase buffer: 1 mL 1× kinase buffer contained 200 μL 5× kinase buffer (Invitrogen), 5 μL, 1M MgCl2, 1 μL 1M DTT, 1 μL 1M MnCl2, and 793 μL ddH2O;
# 5×TK substrate-biotin and ATP working fluid: as the concentrations of TK substrate-biotin and ATP, please refer to Table 1. TK substrate-biotin and ATP were diluted with 1× kinase buffer to 5 folds of the reaction concentrations;
# 5× kinase working fluid: as the concentration of VEGFR2 kinase, please refer to Table 1. 5× kinase working fluid was prepared with 1× Kinase buffer;
# 4× Sa-XL665 working fluid: as the concentration of Sa-XL665 (Cisbio) in the reaction, please refer to Table 1. The 4× Sa-XL665 working fluid was prepared with assay buffer (Cisbio);
# 4×TK Ab-cryptate working fluid: TK Ab-Cryptate (Cisbio) was 100-fold diluted with assay buffer (Cisbio), as working fluid;
# Experimental Procedure of HTRF KinEASE TK Kit
# After all the reagents were prepared as described above, the reagents except for enzymes were equilibrated to room temperature, then adding samples were performed.
# TK substrate-biotin, ATP, VEGFR2 kinase and a compound at a certain concentration were reacted in 1× kinase buffer at room temperature for 20 minutes. […] To all the reaction wells, 5 μl 4× Sa-XL665 working fluid and 5 μl 4×TK Ab-cryptate working fluid were added. After reacting at room temperature for 1 hours, fluorescence signal (excited at 320 nm, emitted at 665 nm, 615 nm) was detected by ENVISION detector (Perkinelmer). Based on the full-active well and the background signal well, the inhibition rate for each well was calculated, and the average value was used for duplicate wells. The half maximal inhibitory concentration (IC50) for each test compound was fitted by professional software Graphpad PRISM 5.0.
# 2.3 Data Analysis Emission light ratio (ER)=665 nm emission signal/615 nm emission signal Inhibition rate=(ERpositive−ERsample)/(ERpositive−ERnegative)*100%
# HTRF KinEASE TK kit was used to determine the IC50 value of a compound for kinase VEGFR2. The final concentration of the compound started from 100 μM, and 4-fold gradient dilution was carried out to provide 10 concentrations. Duplicate wells were used for each concentration. The final concentration of DMSO was controlled to 1% in the reaction system.
# [2] = tested on: human renal cancer 786-O transplantation; experiment: Effect on tumor weight of human renal cancer 786-O transplantation nude mice (Comparative Experimental Example 1); type: in vivo; conditions: QD × 14 days
# From the text: Comparative Experimental Example 1
# The well grown 786-O solid tumor was cut into a mass of an average volume of about 1 mm^3 under aseptic conditions, and was used to inoculate nude mouse at axillary cavity of right forelimb subcutaneously via a trocar. The tumor growth state was observed regularly until the tumor grew into a volume of 250˜550 mm^3.
# (§1) Animals with tumors of a too large or too small volume and an irregular shape were discarded. Tumor-bearing mice with a tumor volume of 250˜550 mm^3 in a good state were selected, 48 mice in total, and were divided into 6 groups, which were 1 solvent control group, 3 positive control groups, and 2 test sample groups. Both the positive control group and the test sample group were administered intragastrically once a day; the solvent control group was administered with 12.5% ethanol & 12.5% water solution of polyoxyethylene castor oil once a day; intragastrical volume was 10 mL/kg.
# (§2) In the period of administration, tumor diameter was measured twice every week, tumor volume was calculated, and animal body weight was recorded. Animal state was observed when administered, and abnormal state was recorded.
# Animal was sacrificed with CO2, and tumor was peeled off, weighed, and photographed. Animal was subjected to gross anatomy, and organs were observed by eyes to find if they were normal or not.
# (§3) Observation Indexes: Tumor weight inhibiting rate (IR)=(WC−WT)/WC
# Wherein WC and WT represented the average tumor weight of solvent control group and the average tumor weight of drug administration group, respectively.
# Experimental data was subjected to calculation and relevant statistic processing by Microsoft Office Excel 2003 software. Unless otherwise specified, data was represented as Mean±Standard Error (Mean±S.E), and t-test is used in the comparison between two groups.
# [3] = tested on: human colon cancer HCT-116 transplantation; experiment: Effect on tumor weight of human colon cancer HCT-116 transplantation nude mice (Comparative Experiment Example 2); type: in vivo; conditions: QD × 17 day
# From the text: Comparative Experiment Example 2
# Under aseptic conditions, the well grown human HCT-116 cell suspension in logarithmic growth phase was used to inoculate nude mouse at axillary cavity of right forelimb subcutaneously via an injector. The tumor growth state was observed regularly until the tumor grew to a volume of 100˜300 mm^3.
# as §1, with “48” for “Animals with tumors of a too large or too small volume and an irregular shape were discarded.”, “100˜300” for “250˜550”, “mm^3” for “mm^3 in a good state”, “selected” for “selected, 48 mice in total,”, “and” for “and were”
# as §2
# Animal was sacrificed with CO2, and tumor mass was peeled off, weighed, and photographed. After photographed, each tumor mass was cut into two parts, wherein one was stored in 4% paraformaldehyde, and the other was packaged into a freezing tube, and frozen in liquid nitrogen. Animal was subjected to gross anatomy, and organs were observed by eyes to find if they were normal or not.
# as §3
# wherein WC and WT represented the average tumor weight of solvent control group and the average tumor weight of drug administration group, respectively.
# Experimental data was subjected to calculation and relevant statistic processing by Microsoft Office Excel 2003 software. Unless otherwise specified, data was represented as Mean±Standard Error (Mean±S.E.), and t-test is used in the comparison between two groups.
structure (smiles),measurement,setting,value
"Cn1cc(-c2nccc(Oc3ccc(NC(=O)Nc4ccc(Cl)c(C(F)(F)F)c4)cc3)c2N)cn1 [Example 6, 1-(4-chloro-3-(trifluoromethyl)phenyl)-3-(4-(3-amino-2-(1-methyl-pyrazol-4-yl)-pyridin-4-yl-oxy)phenyl)urea]",IC50,[1],215 nM
"Cn1cc(-c2cc(Oc3ccc(NC(=O)Nc4ccc(Cl)c(C(F)(F)F)c4)cc3)c(F)cn2)cn1 [Comparative example 3, 1-(4-chloro-3-(trifluoromethyl)phenyl)-3-(4-(2-(1-methyl-pyrazol-4-yl)-5-fluoro-pyridin-4-yl-oxy)phenyl)urea, reference compound]",IC50,[1],437 nM
"Cn1cc(-c2nccc(Oc3ccc(NC(=O)Nc4ccc(Cl)c(C(F)(F)F)c4)c(F)c3)c2Cl)cn1 [Example 3, 1-(4-chloro-3-(trifluoromethyl)phenyl)-3-(4-(3-chloro-2-(1-methyl-pyrazol-4-yl)-pyridin-4-yl-oxy)-2-fluorophenyl)urea]",IC50,[1],222 nM
same,inhibitory activity as fold of that of Sorafenib,[1]; VEGFR2 kinase,1.5 fold
same,IC50 value as fold of that of Comparative compound 2,[1]; VEGFR2 kinase,comparable
same,IC50 value as fold of that of Sorafenib (free base),[1]; VEGFR2 kinase,2.5 fold
"Cn1cc(-c2cc(Oc3ccc(NC(=O)Nc4ccc(Cl)c(C(F)(F)F)c4)cc3)c(Cl)cn2)cn1 [Comparative example 4, 1-(4-chloro-3-(trifluoromethyl)phenyl)-3-(4-(2-(1-methyl-pyrazol-4-yl)-5-chloro-pyridin-4-yl-oxy)phenyl)urea, reference compound]",IC50,[1],20500 nM
"Cn1cc(-c2nccc(Oc3ccc(NC(=O)Nc4ccc(Cl)c(C(F)(F)F)c4)cc3)c2C#N)cn1 [Example 4, 1-(4-chloro-3-(trifluoromethyl)phenyl)-3-(4-(3-cyano-2-(1-methyl-pyrazol-4-yl)-pyridin-4-yl-oxy)phenyl)urea]",IC50,[1],68.5 nM
same,inhibitory activity as fold of that of Comparative compound 2,[1]; VEGFR2 kinase,2.7 fold
same,inhibitory activity as fold of that of Sorafenib,[1]; VEGFR2 kinase,1.3 fold
same,IC50 value as fold of that of Comparative compound 2,[1]; VEGFR2 kinase,0.36 fold
same,IC50 value as fold of that of Sorafenib (free base),[1]; VEGFR2 kinase,0.75 fold
"CNc1c(Oc2ccc(NC(=O)Nc3ccc(Cl)c(C(F)(F)F)c3)cc2)ccnc1-c1cnn(C)c1 [Example 7, 1-(4-chloro-3-(trifluoromethyl)phenyl)-3-(4-(3-methylamino-2-(1-methyl-pyrazol-4-yl)-pyridin-4-yl-oxy)phenyl)urea]",IC50,[1],656 nM
"Cc1c(Oc2ccc(NC(=O)Nc3ccc(Cl)c(C(F)(F)F)c3)cc2)ccnc1-c1cnn(C)c1 [Example 5, 1-(4-chloro-3-(trifluoromethyl)phenyl)-3-(4-(3-methyl-2-(1-methyl-pyrazol-4-yl)-pyridin-4-yl-oxy)phenyl)urea]",IC50,[1],317 nM
"Cn1cc(-c2cc(Oc3ccc(NC(=O)Nc4ccc(Cl)c(C(F)(F)F)c4)cc3)ccn2)cn1 [Comparative example 2, 1-(4-chloro-3-(trifluoromethyl)phenyl)-3-(4-(2-(1-methyl-pyrazol-4-yl)-pyridin-4-yl-oxy)phenyl)urea]",IC50,[1],188 nM
same,Tumor weight Mean ± S.E,"[2]; 20 mg/kg po, sorafenib as p-toluenesulfonate, FD-1210005 free form",0.1892 ± 0.0253 g
same,Tumor-inhibiting rate,"[2]; 20 mg/kg po, sorafenib as p-toluenesulfonate, FD-1210005 free form, listed as Comparative compound 2",80%
same,Tumor-inhibiting rate,"[2]; 20 mg/kg po, sorafenib as p-toluenesulfonate, FD-1210005 free form, listed as FD-1210005",79.78%
same,Tumor weight Mean ± S.E,"[2]; 60 mg/kg po, sorafenib as p-toluenesulfonate, FD-1210005 free form",0.1897 ± 0.0192 g
same,Tumor-inhibiting rate,"[2]; 60 mg/kg po, sorafenib as p-toluenesulfonate, FD-1210005 free form, listed as Comparative compound 2",80%
same,Tumor-inhibiting rate,"[2]; 60 mg/kg po, sorafenib as p-toluenesulfonate, FD-1210005 free form, listed as FD-1210005",79.73%
same,Tumor weight Mean ± S.E,"[3]; 20 mg/kg Ig, sorafenib as p-toluenesulfonate, FD-1210005 free form",0.3283 ± 0.0404 g
same,Tumor-inhibiting rate,"[3]; 20 mg/kg Ig, sorafenib as p-toluenesulfonate, FD-1210005 free form, listed as Comparative compound 2",67%
same,Tumor-inhibiting rate,"[3]; 20 mg/kg Ig, sorafenib as p-toluenesulfonate, FD-1210005 free form, listed as FD-1210005",66.91%
same,Tumor weight Mean ± S.E,"[3]; 60 mg/kg Ig, sorafenib as p-toluenesulfonate, FD-1210005 free form",0.2829 ± 0.0309 g
same,Tumor-inhibiting rate,"[3]; 60 mg/kg Ig, sorafenib as p-toluenesulfonate, FD-1210005 free form, listed as Comparative compound 2",71%
same,Tumor-inhibiting rate,"[3]; 60 mg/kg Ig, sorafenib as p-toluenesulfonate, FD-1210005 free form, listed as FD-1210005",71.49%
"COc1cc(Oc2ccc(NC(=O)Nc3ccc(Cl)c(C(F)(F)F)c3)cc2)cc(-c2cnn(C)c2)n1 [Comparative example 5, 1-(4-chloro-3-(trifluoromethyl)phenyl)-3-(4-(2-(1-methyl-pyrazol-4-yl)-6-methoxy-pyridin-4-yl-oxy)phenyl)urea, reference compound]",IC50,[1],2390 nM
"COc1c(Oc2ccc(NC(=O)Nc3ccc(Cl)c(C(F)(F)F)c3)cc2)ccnc1-c1cnn(C)c1 [Example 8, 1-(4-chloro-3-(trifluoromethyl)phenyl)-3-(4-(3-methoxy-2-(1-methyl-pyrazol-4-yl)-pyridin-4-yl-oxy)phenyl)urea]",IC50,[1],417 nM
CCN(CC)CCNC(=O)c1c(C)[nH]c(/C=C2\C(=O)Nc3ccc(F)cc32)c1C [Sunitinib],Tumor weight Mean ± S.E,[2]; 40 mg/kg po,0.1825 ± 0.0213 g
same,Tumor-inhibiting rate,[2]; 40 mg/kg po,80.49%
same,Tumor weight Mean ± S.E,[3]; 40 mg/kg Ig,0.3890 ± 0.0453 g
same,Tumor-inhibiting rate,[3]; 40 mg/kg Ig,60.80%
